Experimental data taken from US11529356B2, “2-(morpholin-4-yl)-1,7-naphthyridines” (Bayer Pharma Aktiengesellschaft, priority 2014, dated 2022).

What was measured:
Caco-2 cells = test: Proliferation Assay Caco-2 (crystal violet); type: cell-based; conditions: Homo sapiens, Caco-2, Caco-2 cells; read-out: Inhibition of Caco-2 cell proliferation IC50
Description: After 24 hours, the cells of one plate (zero plate) were dyed with crystal violet (see below), whereas the medium of the other plates was replaced with fresh culture medium (200 μl) to which the test substances were added in various concentrations (0 μM, and also in the range of 0.001-10 μM; the final concentration of the solvent dimethyl sulphoxide was 0.1 or 0.5%). The cells were incubated for 4 days in the presence of the test substances. […] After washing the fixed cells three times with water, the plates were dried at room temperature. The cells were stained by adding 100 μl/measurement point of a 0.1% strength crystal violet solution (pH adjusted to pH 3 by adding acetic acid). After washing the cells three times with water, the plates were dried at room temperature. The dye was dissolved by adding 100 μl/measurement point of a 10% strength acetic acid solution. […] The percentage change in cell growth was calculated by normalizing the measured values to the absorbance values of the zero plate (=0%) and the absorbance of the untreated (0 μM) cells (=100%). The IC50 values were determined by means of a four parameter fit.

[1] = biological target: full-length human ATR protein (Homo sapiens (Human), UniProt Q13535); test: Binding Assay ATR (TR-FRET tracer displacement); conditions: tracer A
Sequence of full-length human ATR protein (Q13535 other isoform, or with tags, fused parts or gaps): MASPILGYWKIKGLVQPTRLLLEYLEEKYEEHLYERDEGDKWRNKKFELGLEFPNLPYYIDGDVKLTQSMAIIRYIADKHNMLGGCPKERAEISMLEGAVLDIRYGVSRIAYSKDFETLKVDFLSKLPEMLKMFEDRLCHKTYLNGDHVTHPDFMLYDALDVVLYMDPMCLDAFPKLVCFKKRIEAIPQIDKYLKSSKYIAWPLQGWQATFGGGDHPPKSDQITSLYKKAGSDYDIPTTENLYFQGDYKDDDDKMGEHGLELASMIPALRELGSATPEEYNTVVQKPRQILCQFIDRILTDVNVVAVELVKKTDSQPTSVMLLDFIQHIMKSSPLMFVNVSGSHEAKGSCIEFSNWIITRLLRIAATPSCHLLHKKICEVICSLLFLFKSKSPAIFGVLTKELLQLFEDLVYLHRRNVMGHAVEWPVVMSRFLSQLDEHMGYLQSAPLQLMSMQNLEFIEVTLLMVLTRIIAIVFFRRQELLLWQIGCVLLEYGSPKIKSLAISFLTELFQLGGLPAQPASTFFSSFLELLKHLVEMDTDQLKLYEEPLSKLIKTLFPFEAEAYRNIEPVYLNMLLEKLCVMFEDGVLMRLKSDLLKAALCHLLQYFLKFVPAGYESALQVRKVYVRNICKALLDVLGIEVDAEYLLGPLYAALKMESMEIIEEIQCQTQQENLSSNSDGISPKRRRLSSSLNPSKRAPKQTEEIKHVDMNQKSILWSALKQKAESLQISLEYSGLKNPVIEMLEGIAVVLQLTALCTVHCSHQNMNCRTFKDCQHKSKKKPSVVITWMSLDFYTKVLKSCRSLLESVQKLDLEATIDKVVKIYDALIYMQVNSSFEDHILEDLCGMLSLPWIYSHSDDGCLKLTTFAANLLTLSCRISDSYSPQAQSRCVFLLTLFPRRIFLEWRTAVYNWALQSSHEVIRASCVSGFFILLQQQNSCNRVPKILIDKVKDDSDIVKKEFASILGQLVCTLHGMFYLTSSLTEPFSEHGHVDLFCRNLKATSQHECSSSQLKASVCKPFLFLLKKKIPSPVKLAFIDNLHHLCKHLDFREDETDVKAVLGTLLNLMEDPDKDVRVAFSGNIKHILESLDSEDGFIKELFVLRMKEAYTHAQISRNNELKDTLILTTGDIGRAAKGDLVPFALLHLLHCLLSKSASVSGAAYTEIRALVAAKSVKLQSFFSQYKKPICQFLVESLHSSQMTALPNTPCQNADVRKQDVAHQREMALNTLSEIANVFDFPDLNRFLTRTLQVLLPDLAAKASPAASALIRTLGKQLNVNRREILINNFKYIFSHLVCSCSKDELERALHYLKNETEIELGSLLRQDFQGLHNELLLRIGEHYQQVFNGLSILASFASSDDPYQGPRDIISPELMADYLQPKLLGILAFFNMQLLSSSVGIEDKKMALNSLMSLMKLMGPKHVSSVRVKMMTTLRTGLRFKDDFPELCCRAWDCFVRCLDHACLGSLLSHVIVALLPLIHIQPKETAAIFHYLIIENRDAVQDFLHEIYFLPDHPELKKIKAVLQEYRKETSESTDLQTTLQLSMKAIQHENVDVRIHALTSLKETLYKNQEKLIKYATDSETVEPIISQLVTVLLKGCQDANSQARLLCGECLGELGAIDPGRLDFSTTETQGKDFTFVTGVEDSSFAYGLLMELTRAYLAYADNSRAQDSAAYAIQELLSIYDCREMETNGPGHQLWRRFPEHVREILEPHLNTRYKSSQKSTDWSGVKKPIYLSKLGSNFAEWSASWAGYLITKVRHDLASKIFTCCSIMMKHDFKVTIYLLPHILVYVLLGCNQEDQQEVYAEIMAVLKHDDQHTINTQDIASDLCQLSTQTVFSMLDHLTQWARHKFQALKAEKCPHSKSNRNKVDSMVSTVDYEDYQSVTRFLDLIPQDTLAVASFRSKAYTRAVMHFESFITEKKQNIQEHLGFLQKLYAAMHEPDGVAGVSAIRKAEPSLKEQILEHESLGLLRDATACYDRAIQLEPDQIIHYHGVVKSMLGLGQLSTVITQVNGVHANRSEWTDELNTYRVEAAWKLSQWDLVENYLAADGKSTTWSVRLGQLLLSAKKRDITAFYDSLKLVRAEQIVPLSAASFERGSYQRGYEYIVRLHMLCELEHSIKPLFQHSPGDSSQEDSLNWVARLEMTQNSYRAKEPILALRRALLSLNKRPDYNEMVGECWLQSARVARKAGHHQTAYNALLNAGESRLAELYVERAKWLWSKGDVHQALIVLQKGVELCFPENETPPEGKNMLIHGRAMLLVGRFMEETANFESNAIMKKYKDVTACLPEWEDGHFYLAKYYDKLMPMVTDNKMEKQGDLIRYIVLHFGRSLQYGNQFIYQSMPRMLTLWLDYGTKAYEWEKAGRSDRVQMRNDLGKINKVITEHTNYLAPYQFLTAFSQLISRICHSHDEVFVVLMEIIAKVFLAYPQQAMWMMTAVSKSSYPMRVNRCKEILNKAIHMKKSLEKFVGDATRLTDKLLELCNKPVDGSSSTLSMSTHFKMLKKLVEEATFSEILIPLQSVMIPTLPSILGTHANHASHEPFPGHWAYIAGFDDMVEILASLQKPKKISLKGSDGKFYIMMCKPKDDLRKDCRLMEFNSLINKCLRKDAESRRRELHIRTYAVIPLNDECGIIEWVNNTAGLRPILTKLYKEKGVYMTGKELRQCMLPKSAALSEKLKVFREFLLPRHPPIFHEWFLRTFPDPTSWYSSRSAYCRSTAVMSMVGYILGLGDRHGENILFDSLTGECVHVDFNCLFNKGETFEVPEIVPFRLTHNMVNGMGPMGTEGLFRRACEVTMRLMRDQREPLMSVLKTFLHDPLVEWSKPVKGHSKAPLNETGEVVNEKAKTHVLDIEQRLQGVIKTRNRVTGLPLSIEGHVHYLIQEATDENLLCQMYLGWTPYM
Sequence of full-length human ATR protein (Q8WXE1 other isoform, or with tags, fused parts or gaps partner): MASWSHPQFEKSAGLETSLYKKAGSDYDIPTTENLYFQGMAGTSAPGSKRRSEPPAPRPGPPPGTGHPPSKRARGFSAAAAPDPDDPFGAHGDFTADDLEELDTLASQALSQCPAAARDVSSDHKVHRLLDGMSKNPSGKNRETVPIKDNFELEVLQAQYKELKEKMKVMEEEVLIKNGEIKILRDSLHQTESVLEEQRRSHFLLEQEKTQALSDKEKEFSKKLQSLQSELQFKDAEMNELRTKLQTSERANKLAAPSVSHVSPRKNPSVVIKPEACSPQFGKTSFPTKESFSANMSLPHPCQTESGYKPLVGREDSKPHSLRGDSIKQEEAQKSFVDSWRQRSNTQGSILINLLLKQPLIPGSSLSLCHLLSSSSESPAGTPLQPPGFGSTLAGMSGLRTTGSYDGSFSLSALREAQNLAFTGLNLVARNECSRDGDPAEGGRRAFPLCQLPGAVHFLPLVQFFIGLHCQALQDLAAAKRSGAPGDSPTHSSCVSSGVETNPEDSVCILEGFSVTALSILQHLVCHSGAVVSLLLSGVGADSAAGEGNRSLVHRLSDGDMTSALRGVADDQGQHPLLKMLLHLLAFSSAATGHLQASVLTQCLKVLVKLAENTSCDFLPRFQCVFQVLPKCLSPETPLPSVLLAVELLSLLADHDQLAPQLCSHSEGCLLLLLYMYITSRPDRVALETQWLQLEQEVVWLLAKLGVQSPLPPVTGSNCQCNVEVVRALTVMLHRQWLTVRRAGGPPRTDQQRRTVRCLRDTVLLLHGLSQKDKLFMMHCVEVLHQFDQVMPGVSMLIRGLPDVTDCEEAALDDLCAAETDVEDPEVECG

IC50 (Caco-2 cells)	SMILES	IC50 [1]
> 3 µM	Clc1cc(N2CCOCC2)nc2c(-c3cc[nH]n3)nccc12 [Example 62, 4-chloro-2-morpholin-4-yl-8-(1H-pyrazol-3-yl)-[1,7]naphthyridine]	–
–	c1cc(-c2nccc3c(N4C[C@@H]5C[C@H]4CO5)cc(N4CCOCC4)nc23)[nH]n1 [Example 185, 2-(morpholin-4-yl)-4-[(1S,4S)-2-oxa-5-azabicyclo[2.2.1]hept-5-yl]-8-(1H-pyrazol-5-yl)-1,7-naphthyridine]	0.852 µM
